In patent publication US20070003510A1, “Preparations containing an extract of eperua falcata and/or constituents of the latter” (priority 2003, published 2007):

Columns and labels:
Format in all cases: cell-based
CGRP = experiment: Quantity of neuropeptide CGRP released by neurone culture, ELISA (spontaneous, KCl- or capsaicin-stimulated); details: KCl 40 mM alone, 20 mins; based on the standard (no test substance) = 100
human keratinocytes = experiment: Protection against UV-B radiation: LDH release from human keratinocytes; details: 0.003%, UV-B 50 mJ/cm^2, UV-B alone = 100, no UV-B = 0
Experimental: In cultured human cells, these effects of UV-B radiation on the cell membranes are associated with the release of a cytoplasmatic enzyme into the supernatant solution. This cytoplasmatic enzyme is lactate dehydrogenase or LDH (B. Bonnekoh, B. Farkas, J. Geisel and G. Mahrle, Lactate dehydrogenase release as an indicator of dithranol-induced membrane injury in cultured human keratinocytes, Dermatological Research (1990), Vol. 282, pages 325-331).
(§1) Human keratinocytes were incubated for three days at 37° C. in an atmosphere containing 5% by volume carbon dioxide (standard nutrient medium containing foetal calf serum (FCS)). The nutrient medium was then replaced by an isotonic common salt solution containing the substance to be tested (astilbin or engeletin). The keratinocytes were exposed to UV-B radiation (50 mJ/cm^2, DUKE GL40E lamp), followed by incubation for one day at 37° C. in an atmosphere containing 5% by volume carbon dioxide. The supernatant nutrient medium was spectroscopically analyzed for LDH2 and PEG2 by the ELISA method.
(§2) The results are set out in the following Table (% by comparison with the control test).

human PMNs = experiment: Respiratory burst: reactive oxygen compounds (ROS) of zymosan-activated human PMNs, luminol luminescence; details: for Content of reactive oxygen compounds (ROS) (% versus control): 24 h incubation, zymosan activation; for Effectiveness in suppressing inflammatory processes: in words, effectiveness increases with the quantity used
Source text: In the course of cutaneous inflammation, leucocytes, for example polymorphonuclear neutrophilic granulocytes (PMNs), are attracted and stimulated by peptides, such as cytokines and other messenger substances such as, for example, leudotrienes released from activated or necrotic cells in the dermis. These stimulated PMNs secrete not only pro-inflammatory cytokines, leucotrienes and proteases, but also reactive oxygen compounds (ROS), such as superoxides and hypochlorite anions for example. This is done to destroy pathogenic bacteria or fungi. This activity of the PMNs is known as respiratory burst and intensifies the inflammation reaction and causes tissue damage through released ROS and lysosomal enzymes.
Particulars of the test procedure can be found in the article by Kapp et al. entitled “The role of immunomodulating cytokines, activation of the oxidative metabolism in human polymorphonuclear neutrophilic granulocytes, Journal of Investigative Dermatology, Vol. 95, pages 94S to 99S, 1990”.
A suspension of human PMNs (1 million cells per milliliter) was exposed to the substances to be tested (incubation for 24 h at 37° C. in an atmosphere containing 5% by volume CO2). The number of PMN cells was determined. The PMNs were activated with 0.1 ml zymosan (an insoluble carbohydrate from the cell wall of yeast), followed by incubation for 0.5 h at 37° C. in an atmosphere containing 5% by volume CO2).
The results are set out in the following Table (% by comparison with the control test). The quantity of ROS was measured with luminol; luminescence was determined for 60 seconds.

PGE2 = experiment: Protection against UV-B radiation: PGE2 release from human keratinocytes, ELISA; details: 0.003%, UV-B 50 mJ/cm^2, UV-B alone = 100, no UV-B = 0
Source text: UV-B radiation (wavelength 280 to 320 nm) causes inflammation of the skin, mainly by activation of an enzyme (phospholipase A2 or PLA2) which releases arachidonic acid from the cell membrane (V. A. De Leo, D. Hanson, I. B. Weinstein and L. C. Harber, Ultraviolet radiation stimulates the release of arachidonic acid from mammalian cells in culture, Photochemistry and Photobiology (1985), Vol. 41, No. 1, pages 51 to 56). Other enzymes (so-called cyclo-oxygenases) then convert the arachidonic acid into active components, so-called prostaglandin (PG for short). The prostaglandin is secreted by the cells. The fixing of certain prostaglandins (PGE2) to specific receptors of the skin leads to reddening and swelling of the skin in the same way as sunburn does.
as §1, §2

Row | SMILES | CGRP (CGRP) | Quantity of LDH in %/(control without UV-B exposure) (human keratinocytes) | Quantity of LDH in %/(control without UV-B exposure) (human keratinocytes; listed as astilbin) | Content of reactive oxygen compounds (ROS) (% versus control) (human PMNs; dose 0.0003%) | Content of reactive oxygen compounds (ROS) (% versus control) (human PMNs; dose 0.001%) | Content of reactive oxygen compounds (ROS) (% versus control) (human PMNs; dose 0.003%) | Effectiveness in suppressing inflammatory processes (human PMNs) | Quantity of PGE2 in %/(control without UV-B exposure) (PGE2) | Quantity of PGE2 in %/(control without UV-B exposure) (PGE2; listed as astilbin) | Quantity of LDH in %/(control without UV-B exposure) (human keratinocytes; listed as engeletin) | Content of reactive oxygen compounds (ROS) (% versus control) (human PMNs; dose 0.01%) | Quantity of PGE2 in %/(control without UV-B exposure) (PGE2; listed as engeletin)
1 | [Cl-].[K+] [KCl, potassium chloride] | 554 ± 8 |  |  |  |  |  |  |  |  |  |  | 
2 | C[C@@H]1O[C@@H](O[C@H]2C(=O)c3c(O)cc(O)cc3O[C@@H]2c2ccc(O)c(O)c2)[C@H](O)[C@H](O)[C@H]1O [Pure astilbin, astilbin] |  | 58% | reduced | 47 % versus control | 26 % versus control | 14 % versus control | very effective | 58% | reduced |  |  | 
3 | CC1OC(OC2C(=O)c3c(O)cc(O)cc3OC2c2ccc(O)cc2)C(O)C(O)C1O (centres unmarked) [Pure engeletin, engeletin] |  | 47% |  |  | 65 % versus control | 50 % versus control | very effective | 35% |  | the effect is not as pronounced | 25 % versus control | the effect is not as pronounced
